Measurements: patent US20010010818A1, “Methods and formulations for reducing circulating antibodies” (priority 1998, published 2001)

Columns and labels:
anti-αGal Ig [1] = experiment: Removal of anti-αGal Ig from serum by αGal epitope on resin (Sepharose), measured by FACS; assay type: binding, human; details: epitope on resin (coupled to Sepharose)
Method: (§1) Antibodies. Blood was drawn from healthy normal volunteers. Plasma was separated by centrifugation and allowed to clot. Fibrin was removed and plasma was used immediately or stored in aliquots at −70° C. Rhesus monkey serum (California Regional Primate Research Center, Davis, Calif.) was obtained from blood drawn into vacutainer tubes and allowed to clot. After serum was separated by centrifugation, it was pooled, aliquoted and stored at −20° C. or −70° C. In some experiments, sera was heat-inactivated at 56° C. for 30 minutes to destroy complement hemolytic activity. Antibodies to the αGal epitope were affinity purified on an αGal-Sepharose column, which was prepared by coupling αGal-SH to maleimide-Sepharose (Pierce) through Michael addition chemistry at 10 mg/mL resin. Up to 20 mL pooled NHS […] was applied to a 2 mL volume of packed αGal-Sepharose. After the flow through was collected, the column was washed with 10-20 column volumes or until A280 reached baseline values and eluted with 0.1 M triethanolamine, pH 11.5 into tubes containing 1 M Tris, pH 8.0. The column was immediately washed with 10-20 volumes of phosphate-buffered saline (PBS). Fractions were assessed for protein concentration by Bradford assay. Peak fractions were pooled and dialyzed against PBS. […]

anti-αGal Ig [2] = experiment: as above; assay type: binding, rhesus monkey; details: epitope on resin (coupled to Sepharose)
Method: as §1

OC[C@H]1O[C@H](O[C@H]2[C@@H](O)[C@@H](CO)O[C@@H](OCCOCCOCCS)[C@@H]2O)[C@H](O)[C@@H](O)[C@H]1O [αGal epitope, 2-[2-(2-thioethoxy)ethoxy]ethyl 3-O-(α-D-galactopyranosyl)-β-D-galactopyranoside]
removal of anti-αGal Ig from human serum (anti-αGal Ig [1]): > 95%
removal of anti-αGal Ig from normal rhesus monkey serum (anti-αGal Ig [2]): > 95%
